Data as given in US12440492B2, “Pharmaceutical compositions comprising AKT protein kinase inhibitors” (Genentech, Inc., priority 2016, dated 2025).
Structures can show the parent of a compound that is named as a salt.

Columns and labels:
Type in all cases: physicochemical
[1] = Bulk density, tapped density and Carr index; conditions: monohydrochloride
[2] = Particle size distribution (d10, d50, d90) by laser diffraction
From the text: FIG. 6 illustrates particle size distribution of the material of Example 6C (Batch HQ00003) spray dried with two-feed nozzle as obtained by laser diffraction A bimodal particle size distribution is obvious. FIG. 9 illustrates particle size distribution of spray dried material with rotary wheel nozzle, i.e. of the material of batch BS1506SA03 of Example 13 (Table 20) obtained using a Malvern Mastersizer 2000 equipped with Hydro 2000S wet sample dispersion unit (Malvern Instruments Ltd, Malvern/UK). A monomodal particle size distribution is obvious. The terms “d50 value” (sometimes also referred to as “d(0.5)-value”) and “mass-median diameter” (or MMD) can be used interchangeably and denote the average particle size by mass, i.e. the average equivalent diameter of a particle, which is defined as the diameter where 50% (w) of the particles of the ensemble have a larger equivalent spherical diameter, and the other 50% (w) have a smaller equivalent spherical diameter. In analogy, the term “d10-value” denotes the particle diameter wherein 10% (w) of the particles of the ensemble have a smaller equivalent spherical diameter. In analogy, the term “d90-value” denotes the particle diameter wherein 90% (w) of the particles of the ensemble have a smaller equivalent spherical diameter.

[3] = Solid state by X-ray powder diffraction; conditions: * indicates absence of crystalline API; for Solid state / Polymorphy (X-Ray, XRPD): monohydrochloride
From the text: Bragg's law describes the diffraction of crystalline material with the equation “2d·sin(theta)=n·lambda”, wherein “d” denotes perpendicular distance (in Angstroms) between pairs of adjacent planes in a crystal (“d-spacing”), “theta” denotes the Bragg angle, “lambda” denotes the wavelength and “n” is an integer. When Bragg's law is fulfilled, the reflected beams are in phase and interfere constructively so that Bragg diffraction peaks are observed in the X-ray diffraction pattern. At angles of incidence other than the Bragg angle, reflected beams are out of phase and destructive interference or cancellation occurs. […] The XRPD pattern of an amorphous material is further characterized by one or more amorphous halos.
The term “XRPD” denotes the analytical method of X-Ray Powder Diffraction. The repeatability of the angular values is in the range of 2Theta±0.2°, more particularly in the range of 2Theta±0.1°. The term “approximately” given in combination with an angular value denotes the variance which is in the range of 2Theta±0.2°, particularly in the range of 2Theta±0.1°. The relative XRPD peak intensity is dependent upon many factors such as structure factor, temperature factor, crystallinity, polarization factor, multiplicity, and Lorentz factor. Relative intensities may vary considerably from one measurement to another due to preferred orientation effects. According to USP 941 (US Pharmacopoeia, 37th Edition, General Chapter 941), relative intensities between two samples of the same material may vary considerably due to “preferred orientation” effects. Anisotropic materials adopting preferred orientation will lead to anisotropic distribution of properties such as modulus, strength, ductility, toughness, electrical conductivity, thermal expansion, etc., as described e.g. in Kocks U. F. et al. (Texture and Anisotropy: Preferred Orientations in Polycrystals and Their Effect on Materials Properties, Cambridge University Press, 2000). In XRPD but also Raman spectroscopy, preferred orientations cause a change in the intensity distribution. Preferred orientation effects are particularly pronounced with crystalline APIs of relatively large particle size.

[4] = Shear cell testing with Ring Shear Tester RST-XS; conditions: Pre-shear stress 1000 PA, 30 mL shear cell; monohydrochloride
From the text: Similar to the classification used by Jenike (Dietmar Schulze, Pulver und Schüttgüter, 2009 Springer Verlag Berlin/DE), one can define flow behaviour based on the flow function constant (ffc) as follows:
The larger the flow function constant ffc, i.e., the smaller the ratio of the unconfined yield strength (σc) to the consolidation stress (σ1), the better a bulk solid's flow.

[5] = spray dried amorphous ipatasertib monohydrochloride powder
[6] = spray-dried amorphous ipatasertib monohydrochloride, rotary wheel atomizer

Bulk density [1, 5] [gcm^−3] | Tapped density [1, 5] [gcm^−3] | Particle size d10 [2, 5] [μm] | Particle size d50 [2, 5] [μm] | Particle size d90 [2, 5] [μm] | Solid state / Polymorphy (X-Ray, XRPD) [3] | Consolidation stress (σ1) [4] [PA] | Flow Function Constant (ffc) [4] | Bulk density [1, 6] [gcm^−3] | Tapped density [1, 6] [gcm^−3] | Particle size d10 [2, 6] [μm] | Particle size d50 [2, 6] [μm] | Particle size d90 [2, 6] [μm] | Polymorphy (X-Ray) [3] | particle size distribution shape ([2]; laser diffraction, monohydrochloride) | SMILES
0.39 | 0.55 | 11 | 27 | 54 | amorph.* | 1726 | 2.9 | – | – | – | – | – | – | – | CC(C)NC[C@@H](C(=O)N1CCN(c2ncnc3c2[C@H](C)C[C@H]3O)CC1)c1ccc(Cl)cc1 [Composition 140910417, ipatasertib monohydrochloride]
– | – | – | – | – | – | 1668 | 3.5 | 0.41 | 0.57 | 13 | 33 | 65 | amorphous* | – | CC(C)NC[C@@H](C(=O)N1CCN(c2ncnc3c2[C@H](C)C[C@H]3O)CC1)c1ccc(Cl)cc1 [BS1506SA05, ipatasertib monohydrochloride]
– | – | – | – | – | – | 1686 | 3.4 | 0.43 | 0.56 | 13 | 34 | 68 | amorphous* | – | CC(C)NC[C@@H](C(=O)N1CCN(c2ncnc3c2[C@H](C)C[C@H]3O)CC1)c1ccc(Cl)cc1 [BS1506SA08, ipatasertib monohydrochloride]
– | – | – | – | – | – | 1707 | 3.2 | 0.40 | 0.56 | 11 | 30 | 62 | amorphous* | – | CC(C)NC[C@@H](C(=O)N1CCN(c2ncnc3c2[C@H](C)C[C@H]3O)CC1)c1ccc(Cl)cc1 [BS1506SA04, ipatasertib monohydrochloride]
– | – | – | – | – | – | 1701 | 3.5 | 0.40 | 0.52 | 11 | 31 | 64 | amorphous* | – | CC(C)NC[C@@H](C(=O)N1CCN(c2ncnc3c2[C@H](C)C[C@H]3O)CC1)c1ccc(Cl)cc1 [BS1506SA02, ipatasertib monohydrochloride]
– | – | – | – | – | – | 1709 | 2.9 | 0.39 | 0.55 | 12 | 31 | 62 | amorphous* | monomodal | CC(C)NC[C@@H](C(=O)N1CCN(c2ncnc3c2[C@H](C)C[C@H]3O)CC1)c1ccc(Cl)cc1 [BS1506SA03, ipatasertib monohydrochloride]
0.32 | 0.44 | 9.7 | 24 | 47 | amorph.* | 1733 | 2.4 | – | – | – | – | – | – | – | CC(C)NC[C@@H](C(=O)N1CCN(c2ncnc3c2[C@H](C)C[C@H]3O)CC1)c1ccc(Cl)cc1 [Composition 140910420, ipatasertib monohydrochloride]
0.44 | 0.58 | 11 | 33 | 67 | amorph.* | 1729 | 3.5 | – | – | – | – | – | – | – | CC(C)NC[C@@H](C(=O)N1CCN(c2ncnc3c2[C@H](C)C[C@H]3O)CC1)c1ccc(Cl)cc1 [Composition 140910419, ipatasertib monohydrochloride]
0.42 | 0.57 | 11 | 29 | 56 | amorph.* | 1710 | 3.3 | – | – | – | – | – | – | – | CC(C)NC[C@@H](C(=O)N1CCN(c2ncnc3c2[C@H](C)C[C@H]3O)CC1)c1ccc(Cl)cc1 [Composition 140910415, ipatasertib monohydrochloride]
– | – | – | – | – | – | 1725 | 4.0 | 0.41 | 0.57 | 11 | 31 | 64 | amorphous* | – | CC(C)NC[C@@H](C(=O)N1CCN(c2ncnc3c2[C@H](C)C[C@H]3O)CC1)c1ccc(Cl)cc1 [BS1506SA01, ipatasertib monohydrochloride]
0.40 | 0.55 | 10 | 27 | 52 | amorph.* | 1731 | 2.8 | – | – | – | – | – | – | – | CC(C)NC[C@@H](C(=O)N1CCN(c2ncnc3c2[C@H](C)C[C@H]3O)CC1)c1ccc(Cl)cc1 [Composition 140910416, ipatasertib monohydrochloride]
0.39 | 0.55 | 10 | 26 | 52 | amorph.* | 1730 | 3.1 | – | – | – | – | – | – | – | CC(C)NC[C@@H](C(=O)N1CCN(c2ncnc3c2[C@H](C)C[C@H]3O)CC1)c1ccc(Cl)cc1 [Composition 140910418, ipatasertib monohydrochloride]
